# According to ChEMBL document CHEMBL5223132, “Structure-activity relationships of mixed σ1R/σ2R ligands with antiproliferative and anticancer effects” (Bioorg Med Chem, 2022):
# Tests used:
# SK-N-SH = experiment: Antiproliferative activity against human SK-N-SH cells assessed as reduction in cell viability incubated for 48 hrs by MTT assay; format: functional, cell-based
# [1] = molecular target: T1, Sigma intracellular receptor 2 (Rattus norvegicus, UniProt Q5U3Y7); experiment: Displacement of [3H]DTG from sigma 2 receptor expressed in rat liver membranes assessed as inhibition constant in presence of (+)-pentazocine by radioligand binding assay; format: cell membranes, Membrane
# T1 sequence (Q5U3Y7 whole entry): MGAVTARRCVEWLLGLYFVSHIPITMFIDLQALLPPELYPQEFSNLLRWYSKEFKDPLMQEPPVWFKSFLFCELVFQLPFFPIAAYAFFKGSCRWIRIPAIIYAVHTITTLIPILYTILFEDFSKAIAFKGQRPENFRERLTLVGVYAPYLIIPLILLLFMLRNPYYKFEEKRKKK
# [2] = molecular target: T2, Sigma non-opioid intracellular receptor 1 (Cavia porcellus, UniProt Q60492); experiment: Displacement of [3H]pentazocine from sigma 1 receptor expressed in guinea pig brain membranes assessed as inhibition constant by radioligand binding assay; format: cell membranes, Membrane
# T2 sequence (Q60492 whole entry): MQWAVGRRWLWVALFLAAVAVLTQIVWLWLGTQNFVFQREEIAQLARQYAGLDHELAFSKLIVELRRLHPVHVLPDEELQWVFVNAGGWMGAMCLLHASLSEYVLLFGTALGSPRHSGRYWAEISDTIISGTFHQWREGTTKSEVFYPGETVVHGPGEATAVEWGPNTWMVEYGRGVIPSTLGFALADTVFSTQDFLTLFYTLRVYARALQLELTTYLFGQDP
# PC-3 = experiment: Antiproliferative activity against human PC-3 cells assessed as reduction in cell viability incubated for 48 hrs by MTT assay; format: functional, cell-based; details: PC-3, 48 h
# [3] = molecular target: ATP-dependent translocase ABCB1 (Homo sapiens, UniProt P08183); experiment: Inhibition of P-gp transporter (unknown origin) expressed in dog MDCK-MDR1 assessed as inhibition of fluorescent Calcein-AM transport by fluorescence based assay; format: cell-based
# Sequence of ATP-dependent translocase ABCB1 (P08183 whole entry): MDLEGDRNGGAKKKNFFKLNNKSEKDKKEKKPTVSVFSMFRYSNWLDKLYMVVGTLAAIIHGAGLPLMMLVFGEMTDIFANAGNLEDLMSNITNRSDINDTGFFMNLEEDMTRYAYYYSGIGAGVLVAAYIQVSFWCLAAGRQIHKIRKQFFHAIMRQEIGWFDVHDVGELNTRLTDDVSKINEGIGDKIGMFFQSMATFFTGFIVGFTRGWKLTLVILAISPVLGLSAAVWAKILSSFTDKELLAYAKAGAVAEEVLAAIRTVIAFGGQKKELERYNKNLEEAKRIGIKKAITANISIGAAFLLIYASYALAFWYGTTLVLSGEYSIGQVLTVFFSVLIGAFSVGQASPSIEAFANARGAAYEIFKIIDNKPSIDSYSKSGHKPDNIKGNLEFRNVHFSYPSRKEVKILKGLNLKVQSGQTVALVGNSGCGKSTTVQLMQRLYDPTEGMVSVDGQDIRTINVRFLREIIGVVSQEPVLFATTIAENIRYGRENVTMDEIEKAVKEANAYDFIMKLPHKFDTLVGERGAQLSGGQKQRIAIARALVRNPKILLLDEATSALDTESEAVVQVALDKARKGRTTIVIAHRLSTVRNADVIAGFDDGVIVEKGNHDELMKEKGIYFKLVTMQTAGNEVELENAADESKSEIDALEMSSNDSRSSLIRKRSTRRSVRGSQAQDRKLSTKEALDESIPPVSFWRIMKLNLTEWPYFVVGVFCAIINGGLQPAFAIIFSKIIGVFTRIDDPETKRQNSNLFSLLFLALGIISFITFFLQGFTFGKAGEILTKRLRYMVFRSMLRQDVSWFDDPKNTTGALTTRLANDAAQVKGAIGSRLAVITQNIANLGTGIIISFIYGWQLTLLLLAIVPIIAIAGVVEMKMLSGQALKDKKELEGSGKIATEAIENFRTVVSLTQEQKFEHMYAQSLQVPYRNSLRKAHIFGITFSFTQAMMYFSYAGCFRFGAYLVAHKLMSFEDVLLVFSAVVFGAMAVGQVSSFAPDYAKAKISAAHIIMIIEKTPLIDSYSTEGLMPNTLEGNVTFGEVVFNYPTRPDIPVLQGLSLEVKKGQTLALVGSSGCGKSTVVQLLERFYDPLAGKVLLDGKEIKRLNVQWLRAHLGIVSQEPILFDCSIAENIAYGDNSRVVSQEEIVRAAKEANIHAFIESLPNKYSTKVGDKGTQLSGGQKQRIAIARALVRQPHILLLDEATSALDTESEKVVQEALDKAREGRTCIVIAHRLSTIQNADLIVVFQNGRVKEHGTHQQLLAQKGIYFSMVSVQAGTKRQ
# [4] = molecular target: T3, Sigma intracellular receptor 2 (Homo sapiens, UniProt Q5BJF2); experiment: Binding affinity to human sigma 2 receptor
# T3 sequence (Q5BJF2 whole entry): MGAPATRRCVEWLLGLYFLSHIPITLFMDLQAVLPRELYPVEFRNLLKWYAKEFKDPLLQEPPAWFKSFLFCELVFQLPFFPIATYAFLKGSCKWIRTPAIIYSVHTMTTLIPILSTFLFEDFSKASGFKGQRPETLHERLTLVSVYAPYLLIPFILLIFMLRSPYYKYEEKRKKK
# [5] = molecular target: T4, Sigma non-opioid intracellular receptor 1 (Homo sapiens, UniProt Q99720); experiment: Binding affinity to sigma 1 receptor (unknown origin)
# T4 sequence (Q99720 whole entry): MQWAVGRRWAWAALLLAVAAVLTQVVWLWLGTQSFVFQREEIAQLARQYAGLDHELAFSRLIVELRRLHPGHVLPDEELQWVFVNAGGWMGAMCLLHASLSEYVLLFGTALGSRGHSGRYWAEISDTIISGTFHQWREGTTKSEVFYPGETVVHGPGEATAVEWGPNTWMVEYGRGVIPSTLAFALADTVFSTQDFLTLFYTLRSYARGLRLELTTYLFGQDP
# [6] = molecular target: T3, Sigma intracellular receptor 2; experiment: Binding affinity to sigma 2 receptor (unknown origin)
# [7] = molecular target: T3, Sigma intracellular receptor 2; experiment: Binding affinity to sigma 2 receptor (unknown origin) expressed in human RT-4 cells; format: cell-based
# 5637 = experiment: Antiproliferative activity against human 5637 cells assessed as reduction in cell viability; format: functional, cell-based
# [8] = molecular target: T1, Sigma intracellular receptor 2; experiment: Binding affinity to sigma 2 receptor expressed in rat liver; format: tissue-based
# MCF7 [9] = experiment: Antiproliferative activity against human MCF7 cells assessed as reduction in cell viability; format: functional, cell-based
# A-427 = experiment: Antiproliferative activity against human A-427 cells assessed as reduction in cell viability; format: functional, cell-based
# [10] = molecular target: T3, Sigma intracellular receptor 2; experiment: Displacement of [H3]DTG from sigma 2 receptor (unknown origin) by competition binding assay
# [11] = molecular target: T4, Sigma non-opioid intracellular receptor 1; experiment: Binding affinity to human sigma 1 receptor
# SK-MEL-28 [12] = experiment: Anti-proliferative against human SK-MEL-28 cells assessed as reduction in cell viability incubated for 24 hrs by MTT assay; format: functional, cell-based; details: SK-MEL-28, 24 h
# [13] = molecular target: T2, Sigma non-opioid intracellular receptor 1; experiment: Displacement of [3H]pentazocine from sigma 1 receptor expressed in guinea pig brain membranes assessed as inhibition constant incubated for 150 mins by radioligand binding assay; format: cell membranes, Membrane
# SK-MEL-28 [14] = experiment: Anti-proliferative against human SK-MEL-28 cells assessed as reduction in cell viability incubated for 48 hrs by MTT assay; format: functional, cell-based; details: SK-MEL-28, 48 h
# [15] = molecular target: T1, Sigma intracellular receptor 2; experiment: Displacement of [3H]DTG from sigma 2 receptor expressed in rat liver membranes assessed as inhibition constant incubated for 120 mins in presence of (+)-SKF10047 by radioligand binding assay; format: cell membranes, Membrane
# MDA-MB-231 [16] = experiment: Anti-invasive activity against human MDA-MB-231 cells assessed as decrease in cell invasion at 10 uM incubated for 24 hrs by 3D spheroid invasion assay; format: functional; parameters: scale not given: the % may be the effect or the level left
# MDA-MB-231 [17] = experiment: Anti-migratory activity against human MDA-MB-231 cells assessed as reduction in cell migration at 10 uM and measured after 12 hrs by wound healing assay; format: functional; parameters: scale not given: the % may be the effect or the level left
# [18] = molecular target: T4, Sigma non-opioid intracellular receptor 1; experiment: Displacement of [H3]DTG from sigma 1 receptor (unknown origin) by competition binding assay
# [19] = Binding affinity to human sigma 1 receptor
# [20] = Anti-proliferative against human U-87 MG cells assessed as reduction in cell viability incubated for 72 hrs by MTT assay; format: functional, cell-based, U-87MG ATCC
# [21] = Anti-proliferative against human U-87 MG cells assessed as reduction in cell viability incubated for 48 hrs by MTT assay; format: functional, cell-based, U-87MG ATCC
# [22] = Anti-proliferative against human U-87 MG cells assessed as reduction in cell viability incubated for 24 hrs by MTT assay; format: functional, cell-based, U-87MG ATCC
# MDCK-MDR1 [23] = experiment: Anticancer against dog MDCK-MDR1 cells assessed as reduction in cell viability at 50 uM incubated for 48 hrs in presence of doxorubicin by MTT assay; format: functional, Canis lupus familiaris
# MDCK-MDR1 [24] = experiment: Anticancer against dog MDCK-MDR1 cells assessed as reduction in cell viability at 30 uM incubated for 48 hrs in presence of doxorubicin by MTT assay; format: functional, Canis lupus familiaris
# MDCK-MDR1 [25] = experiment: Anticancer against dog MDCK-MDR1 cells assessed as reduction in cell viability at 50 uM incubated for 48 hrs by MTT assay; format: functional, Canis lupus familiaris
# [26] = molecular target: T2, Sigma non-opioid intracellular receptor 1; experiment: Binding affinity to sigma 1 receptor expressed in guinea pig brain; format: tissue-based
# [27] = molecular target: T4, Sigma non-opioid intracellular receptor 1; experiment: Binding affinity to sigma 1 receptor (unknown origin) expressed in human RPMI-8226 cells; format: cell-based
# RPMI-8226 [28] = experiment: Antiproliferative activity against human RPMI-8226 cells assessed as reduction in cell viability; format: functional, cell-based
# RPMI-8226 [29] = experiment: Anti-proliferative against human RPMI-8226 cells assessed as reduction in cell viability at 40 uM incubated for 24 hrs by MTT assay; format: functional
# [30] = Anti-proliferative against human U-87 MG cells assessed as reduction in cell viability at 40 uM incubated for 24 hrs by MTT assay; format: functional, U-87MG ATCC
# RPMI-8226 [31] = experiment: Induction of apoptosis in human RPMI-8226 cells assessed as total apoptotic cells incubated for 48 hrs by annexin-V/propidium iodide staining based flow cytometry; format: functional
# MCF7 [32] = experiment: Antiproliferative activity against human MCF7 cells assessed as reduction in cell proliferation at 100 uM incubated for 48 hrs by MTT assay; format: functional; parameters: scale not given: the % may be the effect or the level left
# D(2) dopamine receptor = D(2) dopamine receptor (Homo sapiens, UniProt P14416); experiment: Binding affinity to D2R receptor (unknown origin)
# Sequence of D(2) dopamine receptor (P14416 whole entry): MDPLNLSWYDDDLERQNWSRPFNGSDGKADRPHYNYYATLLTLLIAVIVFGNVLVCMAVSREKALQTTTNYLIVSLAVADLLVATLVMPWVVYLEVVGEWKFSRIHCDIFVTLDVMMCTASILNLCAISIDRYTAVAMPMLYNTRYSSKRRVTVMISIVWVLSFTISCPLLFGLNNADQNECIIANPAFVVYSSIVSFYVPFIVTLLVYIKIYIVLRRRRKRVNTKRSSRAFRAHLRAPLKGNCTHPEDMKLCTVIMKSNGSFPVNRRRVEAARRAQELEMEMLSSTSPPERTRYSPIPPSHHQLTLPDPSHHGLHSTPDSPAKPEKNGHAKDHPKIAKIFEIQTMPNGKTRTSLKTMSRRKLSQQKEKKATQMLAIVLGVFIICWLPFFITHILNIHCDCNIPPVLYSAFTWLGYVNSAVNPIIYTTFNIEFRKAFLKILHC
# [33] = molecular target: T5, 5-hydroxytryptamine receptor 1A (Homo sapiens, UniProt P08908); experiment: Binding affinity to 5-HT1A receptor (unknown origin) by […]
# T5 sequence (P08908 whole entry): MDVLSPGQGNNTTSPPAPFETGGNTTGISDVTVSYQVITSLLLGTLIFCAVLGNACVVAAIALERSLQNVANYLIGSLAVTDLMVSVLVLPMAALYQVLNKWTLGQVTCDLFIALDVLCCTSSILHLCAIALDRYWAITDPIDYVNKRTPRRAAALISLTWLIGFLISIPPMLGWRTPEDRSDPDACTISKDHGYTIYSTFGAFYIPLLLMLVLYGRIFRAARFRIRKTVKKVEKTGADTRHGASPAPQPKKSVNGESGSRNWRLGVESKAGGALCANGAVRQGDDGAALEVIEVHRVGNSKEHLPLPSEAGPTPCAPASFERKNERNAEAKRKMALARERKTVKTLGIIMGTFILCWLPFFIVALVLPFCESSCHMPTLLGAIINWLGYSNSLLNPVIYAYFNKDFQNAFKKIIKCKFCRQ
smiles,measurement,setting,value
Fc1cccc(F)c1[C@H]1CC[C@@H](N2CCN(C3CCCCC3)CC2)CC1,EC50,SK-N-SH,12100 nM
same,Ki,[1],14.1 nM
same,Ki,[2],0.63 nM
same,EC50,PC-3,40600 nM
same,EC50,[3],7300 nM
CCCN(CCC)CCc1ccc(OC)c(OCCc2ccccc2)c1,Ki,[4],170 nM
O=c1sc2cc(CCCF)ccc2n1CCN1CCCCCC1,Ki,[5],0.0025 nM
COc1cc2c(cc1OC)CN(CCCCNC(=O)c1cc(C)ccc1OCC[18F])CC2,Ki,[5],23.9 nM
same,Ki,[6],2 nM
O=C(OCCN1CCOCC1)C1(c2ccccc2)CCCCC1,Ki,[4],32100 nM
OCC[C@H]1CN(CC2CCCCC2)CCN1Cc1ccc(-c2ccccc2)cc1,Ki,[7],43 nM
same,IC50,5637,10500 nM
same,Ki,[8],73 nM
same,IC50,MCF7 [9],8830 nM
same,IC50,A-427,9250 nM
OCC[C@@H]1CN(CC2CCCCC2)CCN1Cc1ccc(-c2ccccc2)cc1,Ki,[7],39 nM
same,IC50,5637,6570 nM
same,Ki,[8],38 nM
same,IC50,MCF7 [9],> 20000 nM
same,IC50,A-427,3460 nM
COc1ccc(C)cc1NC(=O)OC1CC2CCCC(C1)N2CCCCCCCCCCN (stereo not given),Ki,[10],7.7 nM
CCCN1CCC=C(c2cc(-c3ccc(C)cc3)no2)C1,Ki,[4],1380 nM
same,Ki,[11],0.08 nM
c1ccc(CC2CCN(CC3CSC4(CCCCC4)S3)CC2)cc1 (stereo not given),IC50,SK-MEL-28 [12],52000 nM
same,Ki,[13],537 nM
same,IC50,SK-MEL-28 [14],22000 nM
same,Ki,[15],19.5 nM
O=C(CCCN1CCCN(c2ccc(Cl)cc2)CC1)c1ccc(F)cc1,Activity,MDA-MB-231 [16],49%
same,Activity,MDA-MB-231 [17],95%
CCN(C/C=C\c1ccc(C2CCCCC2)c(Cl)c1)C1CCCCC1,Ki,[18],2 nM
same,IC50,[10],45 nM
O=C(NC1CCN(Cc2ccccc2)CC1)c1ccc(I)cc1,Ki,[4],25.2 nM
same,Ki,[19],1.7 nM
CCCCCCCNCCC1CCN(C)C(c2ccccc2)C1 (stereo not given),Ki,[1],285 nM
same,Ki,[2],16 nM
CCN(CC)CCNC(=O)c1ccc(OC)c([123I])c1,Ki,[5],11.8 nM
same,Ki,[6],206 nM
CN1C(=O)CCc2cc(CNC(C)(C)[C@@H](O)c3ccccc3)ccc21,Ki,[18],> 1000 nM
same,Ki,[10],4 nM
C1=C(c2c[nH]c3ncccc23)CCN(CCCc2ccccc2)C1,Ki,[18],29 nM
CCCCCCNCC[C@H]1CCC[C@@H](c2ccccc2)O1,Ki,[1],36 nM
same,Ki,[2],2.4 nM
C/C(=C\CN1CCN(Cc2ccc(C(F)(F)F)cc2)CC1)c1ccccc1,IC50,[20],19000 nM
same,IC50,[21],22300 nM
same,IC50,"[22]; Homo sapiens, U-87 MG, 24 h",28300 nM
same,IC50,[22]; u-87mg atcc,22300 nM
C/C(=C\CN1CCN(C(=O)C2CCCC2)CC1)c1ccccc1,IC50,[20],11200 nM
same,IC50,[21],39000 nM
same,IC50,"[22]; Homo sapiens, U-87 MG, 24 h",39000 nM
COc1cccc(OC)c1[C@H]1CC[C@@H](N2CCN(C3CCCCC3)CC2)CC1,Activity,MDCK-MDR1 [23],90%
same,EC50,SK-N-SH,32500 nM
same,Ki,[1],7.92 nM
same,Ki,[2],0.26 nM
same,Activity,MDCK-MDR1 [24],70%
same,EC50,PC-3,31300 nM
same,Activity,MDCK-MDR1 [25],50%
same,EC50,[3],800 nM
CCCCCCNCC[C@@H]1CCC[C@H](c2ccccc2)O1,Ki,[1],57 nM
same,Ki,[2],0.95 nM
CCN1CCN(Cc2cccc3ccccc23)[C@@H](CCO)C1,Ki,[26],1.9 nM
same,Ki,[7],16 nM
same,Ki,[27],29 nM
same,IC50,5637,3650 nM
same,IC50,RPMI-8226 [28],1290 nM
same,Ki,[8],26 nM
same,IC50,MCF7 [9],9770 nM
same,IC50,A-427,9120 nM
C/C(=C\CN1CCN(Cc2ccccc2)CC1)c1ccc2ccccc2c1,Activity,RPMI-8226 [29],65%
same,Activity,[30],34%
c1ccc(CN2CCN(CC3CSC4(CCCCC4)S3)CC2)cc1 (stereo not given),IC50,SK-MEL-28 [12],50000 nM
same,Ki,[13],6.16 nM
same,IC50,SK-MEL-28 [14],38000 nM
same,Ki,[15],75.9 nM
COc1ccc(/C(C)=C/CN2CCN(Cc3ccc(C(F)(F)F)cc3)CC2)cc1,IC50,[20],20600 nM
same,IC50,[21],24100 nM
same,IC50,"[22]; Homo sapiens, U-87 MG, 24 h",27600 nM
same,IC50,[22]; u-87mg atcc,24100 nM
CCN1CCN(Cc2cccc3ccccc23)[C@H](CCO)C1,Ki,[26],0.9 nM
same,Ki,[7],37 nM
same,Ki,[27],7.5 nM
same,IC50,5637,4790 nM
same,IC50,RPMI-8226 [28],8530 nM
same,Ki,[8],14 nM
same,Activity,RPMI-8226 [31],32%
same,IC50,MCF7 [9],9050 nM
same,IC50,A-427,5020 nM
OC(CCCN1CCC(O)(c2ccc(Cl)cc2)CC1)c1ccc(F)cc1 (racemic) [HYDROXYHALOPERIDOL],Activity,MCF7 [32],98%
CCCN1CCC(c2cccc(S(C)(=O)=O)c2)CC1 [PRIDOPIDINE],Ki,[5],17 nM
same,Ki,D(2) dopamine receptor,10000 nM
O=C(CN1CCC(CN2Cc3ccccc3C2=O)CC1)c1ccc(F)cc1 [ROLUPERIDONE],Ki,[33],7.53 nM
